Experimental data reported in patent US9572827B2, “Pharmaceutical composition for treating depression and method for preparation thereof” (Beijing Wonner Biotech, Ltd. Co., priority 2005, dated 2017).

How the values were obtained:
ICR mice [1] = test: Body temperature decrease experiment induced by resetpine; type: in vivo; details: 16.7 mg/kg, 2 times per day for 7 days
From the text: Experiment 2: Body Temperature Decrease Experiment Induced by Resetpine
Experimental animal: ICR mice
Experimental pharmaceuticals: The pharmaceutical of the Embodiment 3 of the present invention is provided by Beijing Wonner Biotech Ltd. Co., the depression-relieving pill is the product of Zhengzhou Yumi Medicines Co. Ltd., and Paroxitine (Paxil) is the product of Zhong Mei Tianjin Smith Kline pharmaceuticals Co. Ltd.
I. Group division: 1. Large dose of the Embodiment 3 medicine of the present invention (188.5 mg/kg), 2. middle dose of the Embodiment 3 medicine of the present invention (94.25 mg/kg), 3. small dose of the Embodiment 3 medicine of the present invention (47.125 mg/kg), 4. depression-reliving pill (650 mg/kg), 5. Paroxitine (16.7 mg/kg), and 6. physiological saline. (Ten (10) mice are in each group.)
II. Administration of drug: the abovementioned pharmaceutical water solutions are fed into the stomach according to 0.2 ml/10 g body weight, 2 times per day for a total of 7 days.
III. After the last administration of drug, the anal temperature (abbreviated as anal temp.) is determined, and then 2 mg resetpine per kg of the body weight is taken by intraperitoneal injection. After injecting the resetpine for 2, 3, 4, 5, 6 and 7 hours respectively, the anal temperature of the mice are determined.
The variance analysis calculation and the p-value compared with the control of the experimental result are calculated by using SPSS 11.5 analytic software.

ICR mice [2] = test: Mouse tail-hanging experiment; type: in vivo; details: 16.7 mg/kg, fed into the stomach 2 times per day for 7 days; 1 hour after last administration; last 5 of 6 minutes
Procedure: Experiment 1: “Mouse Tail-Hanging” Experiment Experimental animal: ICR mice Experimental pharmaceuticals: The pharmaceutical of the Embodiment 3 of the present invention is provided by Beijing Wonner Biotech Ltd. Co., the depression-relieving pill is the product of Zhengzhou Yumi Medicines Co. Ltd., and Paroxitine (Paxil) is the product of Zhong Mei Tianjin Smith Kline pharmaceuticals Co. Ltd. I. Group division: 1. Large dose of the Embodiment 3 medicine of the present invention (188.5 mg/kg), 2. middle dose of the Embodiment 3 medicine of the present invention (94.25 mg/kg), 3. small dose of the Embodiment 3 medicine of the present invention (47.125 mg/kg), 4. depression-reliving pill (650 mg/kg), 5. Paroxitine (16.7 mg/kg), and 6. physiological saline. (Ten (10) mice are in each group.) II. Administration of drug: The abovementioned pharmaceutical water solutions are fed into the stomach according to 0.2 ml/10 g body weight, 2 times per day for a total of 7 days. After 1 hour of the last administration of drug, the mouse tail-hanging experiment is proceeded. III. […] The time of non-movement of the mouse for the last 5 minutes is recorded. The variance analysis calculation and the p-value compared with the control of the experimental result are calculated by using SPSS 11.5 analytic software.

Fc1ccc([C@@H]2CCNC[C@H]2COc2ccc3c(c2)OCO3)cc1 [Paroxitine]
Decreased anal temp. for 2 hr (ICR mice [1]; 2 hr after resetpine 2 mg/kg i.p.): 1.29 ± 0.47 °C
Decreased anal temp. for 3 hr (ICR mice [1]; 3 hr after resetpine 2 mg/kg i.p.): 1.08 ± 0.35 °C
Decreased anal temp. for 4 hr (ICR mice [1]; 4 hr after resetpine 2 mg/kg i.p.): 1.55 ± 0.64 °C
Decreased anal temp. for 5 hr (ICR mice [1]; 5 hr after resetpine 2 mg/kg i.p.): 1.44 ± 0.32 °C
Decreased anal temp. for 6 hr (ICR mice [1]; 6 hr after resetpine 2 mg/kg i.p.): 2.51 ± 0.47 °C
Decreased anal temp. for 7 hr (ICR mice [1]; 7 hr after resetpine 2 mg/kg i.p.): 2.76 ± 0.59 °C
Time of non-movement (ICR mice [2]): 54.98 ± 46.92 s
